Test results from PubChem BioAssay (NCI).
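Following 48 hours of exposure in 96-well plates, responses at five concentrations were used to interpolate endpoints linearly. GI50 = concentration required for 50% inhibition of growth. TGI: concentration producing complete growth inhibition.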

Legend:
Experiment in all cases: DTP human tumour cell line panel, 48 h
DMS 114 small cell lung = tested on: DMS 114 small cell lung
M19-MEL melanoma = tested on: M19-MEL melanoma
UO-31 renal = tested on: UO-31 renal
KM20L2 colon = tested on: KM20L2 colon
MALME-3M melanoma = tested on: MALME-3M melanoma
SNB-75 CNS = tested on: SNB-75 CNS
XF 498 CNS = tested on: XF 498 CNS
HL-60(TB) leukemia = tested on: HL-60(TB) leukemia
MCF7 breast = tested on: MCF7 breast
HS 578T breast = tested on: HS 578T breast
T-47D breast = tested on: T-47D breast
DU-145 prostate = tested on: DU-145 prostate

For `Cc1cc(NS(=O)(=O)c2ccc(NC(=O)c3ccc(Cl)c4c(Nc5ccc(S(=O)(=O)N=C(N)N)cc5)c5ccccc5nc34)cc2)no1`, the TGI (DMS 114 small cell lung) was over 100 µM, the TGI (M19-MEL melanoma) was over 100 µM and the TGI (UO-31 renal) was over 100 µM. It also gave a TGI (KM20L2 colon) of over 100 µM, a TGI (MALME-3M melanoma) of over 100 µM and a TGI (SNB-75 CNS) of 95.6 µM. It also gave a TGI (XF 498 CNS) of 98.8 µM.

`O=C1C2C=CC(C2)C(c2ccc(O)cc2)N1O` (stereo not given) was tested, and the TGI (M19-MEL melanoma) was over 100 µM, the TGI (UO-31 renal) was over 100 µM and the TGI (HL-60(TB) leukemia) was over 100 µM. For the same compound, the TGI (KM20L2 colon) was over 100 µM, the TGI (MALME-3M melanoma) was over 100 µM and the TGI (SNB-75 CNS) was over 100 µM. The TGI (XF 498 CNS) was over 100 µM.

With `CC(O)c1ccc[n+](Cc2ccccc2)c1` (stereo not given) the TGI (DMS 114 small cell lung) was over 400 µM, the TGI (M19-MEL melanoma) was over 400 µM and the TGI (HL-60(TB) leukemia) was over 400 µM. The TGI (KM20L2 colon) was over 400 µM, the TGI (MALME-3M melanoma) was over 400 µM and the TGI (XF 498 CNS) was over 400 µM.

`COc1cc(/C=C/C(=O)c2c(C)nc3ccccc3c2/C=C/c2ccc(C)cc2)cc(OC)c1OC` was tested, and the GI50 (UO-31 renal) was 1.37 µM, the TGI (UO-31 renal) was 2.67 µM and the GI50 (MCF7 breast) was 1.39 µM. For the same compound, the TGI (MCF7 breast) was 3.51 µM, the GI50 (HL-60(TB) leukemia) was 2.22 µM and the TGI (HL-60(TB) leukemia) was 6.29 µM. The GI50 (HS 578T breast) was 3.26 µM, the TGI (HS 578T breast) was over 100 µM and the GI50 (T-47D breast) was 2.49 µM. For the same compound, the TGI (T-47D breast) was over 100 µM, the GI50 (DU-145 prostate) was 1.86 µM and the TGI (DU-145 prostate) was 3.66 µM. For the same compound, the GI50 (MALME-3M melanoma) was 1.85 µM, the TGI (MALME-3M melanoma) was 3.52 µM and the GI50 (SNB-75 CNS) was 1.47 µM. For the same compound, the TGI (SNB-75 CNS) was 4.82 µM.

Compound `COC(=O)NN=C1C(C)(C)C(=O)C1(C)C` has a TGI (UO-31 renal) of over 100 µM, a TGI (HL-60(TB) leukemia) of over 100 µM and a TGI (KM20L2 colon) of over 100 µM. It also gave a TGI (MALME-3M melanoma) of over 100 µM, a TGI (SNB-75 CNS) of over 100 µM and a TGI (XF 498 CNS) of over 100 µM.

Work on `CCN1Cc2c(ccc(F)c2C#N)O[C@@H](C)CNC(=O)c2c(N)nn3ccc1nc23` yielded a GI50 (UO-31 renal) of 1.14 µM, a TGI (UO-31 renal) of 6.53 µM and a GI50 (MCF7 breast) of 3.23 µM. It also gave a TGI (MCF7 breast) of 31.1 µM, a GI50 (HL-60(TB) leukemia) of 4.37 µM and a TGI (HL-60(TB) leukemia) of 40 µM. It also gave a GI50 (HS 578T breast) of 0.652 µM, a TGI (HS 578T breast) of 4.71 µM and a GI50 (T-47D breast) of 2.78 µM. It also gave a TGI (T-47D breast) of 56.3 µM, a GI50 (DU-145 prostate) of 2.09 µM and a TGI (DU-145 prostate) of 15.7 µM. For the same compound, the GI50 (MALME-3M melanoma) was 1.15 µM, the TGI (MALME-3M melanoma) was 7.4 µM and the GI50 (SNB-75 CNS) was 0.465 µM. For the same compound, the TGI (SNB-75 CNS) was 3.82 µM.

`COc1ccccc1N1CCN(CCc2c[nH]c3cc4c(cc23)OCO4)CC1` showed a GI50 (UO-31 renal) of 20.3 µM, a TGI (UO-31 renal) of over 100 µM and a GI50 (MCF7 breast) of 33.3 µM. The TGI (MCF7 breast) was over 100 µM, the GI50 (HL-60(TB) leukemia) was 10.4 µM and the TGI (HL-60(TB) leukemia) was over 100 µM. For the same compound, the GI50 (HS 578T breast) was 20.1 µM, the TGI (HS 578T breast) was 70.9 µM and the GI50 (T-47D breast) was 19.8 µM. It also gave a TGI (T-47D breast) of 77.3 µM, a GI50 (DU-145 prostate) of 28.9 µM and a TGI (DU-145 prostate) of over 100 µM. For the same compound, the GI50 (MALME-3M melanoma) was 27.9 µM, the TGI (MALME-3M melanoma) was over 100 µM and the GI50 (SNB-75 CNS) was 25 µM. It also gave a TGI (SNB-75 CNS) of over 100 µM.

With `Oc1ccccc1CNCC12CC3CC(CC(C3)C1)C2` the GI50 (UO-31 renal) was 20.3 µM, the TGI (UO-31 renal) was over 100 µM and the GI50 (MCF7 breast) was 16.8 µM. The TGI (MCF7 breast) was 34.7 µM, the GI50 (HL-60(TB) leukemia) was 22 µM and the TGI (HL-60(TB) leukemia) was 53.3 µM. The GI50 (HS 578T breast) was 19.4 µM, the TGI (HS 578T breast) was 74.4 µM and the GI50 (T-47D breast) was 20.1 µM. It also gave a TGI (T-47D breast) of 44.6 µM, a GI50 (DU-145 prostate) of 48.9 µM and a TGI (DU-145 prostate) of over 100 µM. For the same compound, the GI50 (MALME-3M melanoma) was 21.2 µM, the TGI (MALME-3M melanoma) was 48.8 µM and the GI50 (SNB-75 CNS) was 34.9 µM. For the same compound, the TGI (SNB-75 CNS) was over 100 µM.

Work on `Cc1[nH]c(=O)n2c(C)nnc2c1C(=O)Nc1cc(Cl)cc(Cl)c1` yielded a TGI (M19-MEL melanoma) of 91.9 µM, a TGI (UO-31 renal) of 68.2 µM and a TGI (HL-60(TB) leukemia) of 47.9 µM. For the same compound, the TGI (MALME-3M melanoma) was over 100 µM and the TGI (SNB-75 CNS) was 88.9 µM.
